Source: patent US20250025553A1, “COMBINATION THERAPY FOR CANCER” (Medannex Ltd., priority 2021, published 2025)
“Also recorded” adds a separate entry of the source. Like-named read-outs stand apart in the source and are kept apart here.

What was measured:
interleukin-6 (IL-6) = assay: Intracellular IL-6 expression (flow cytometry); assay type: cell-based, human; settings: MDX-124 20 μM, bortezomib 20 nM or both, 24h; multiple myeloma cell lines
Method: The effects of each agent, both alone and in combination, on the expression of interleukin-6 (IL-6) were assessed using flow cytometry. […] Mean fluorescence intensity values for IL-6 for each respective treatment group were compared with untreated control cells.

p-BCL2 (pS70) = assay: Expression of apoptosis related protein p-BCL2 (flow cytometry); assay type: cell-based, human; settings: MDX-124 20 μM, bortezomib 20 nM or both, 4 h; multiple myeloma cell lines
Method: (§1) The effects of MDX-124, bortezomib and the combination of both agents on the expression of 2 apoptosis related proteins, p-BCL2 and p-STAT3, was assessed using flow cytometry. Aliquots of each human multiple myeloma cell line were treated with either MDX-124 (20 μM), bortezomib (20 nM) or a combination of MDX-124 and bortezomib for 4 h prior to staining with an Alexa488-labelled p-STAT3 (Tyr705, from BD Biosciences, catalogue #557814) antibody and a PE-labelled p-BCL2 ([…], BD Biosciences, catalogue #562532) antibody. Mean fluorescence intensity values for each treatment group were compared with untreated control cells.

[1] = system: Human multiple myeloma cell lines (H929, JJN3 and U266); assay: Apoptosis assay (Annexin V and 7-AAD labelling, flow cytometry); assay type: cell-based; settings: MDX-124 20 μM, bortezomib 20 nM or both (1000:1), 48 h
Method: The effect of MDX-124, bortezomib and the combination of both agents on apoptosis was assessed using Annexin V and 7-AAD labelling. Human multiple myeloma cell lines (H929, JJN3 and U266, all from DSMZ, Leibniz Institute, German Collection of Microorganisms and Cell Cultures, GmbH, Germany) were incubated with either MDX-124 (20 μM), bortezomib (20 nM, Cell Signaling Technology, MA, USA) or the combination of both agents (fixed molar ratio of 1000:1) in 1 mL of RPMI media supplemented with 10% FCS for 48 h. The percentage of apoptosis above untreated control cell levels was quantified using flow cytometry for each respective treatment group.

p-STAT3 (Tyr705) = assay: Expression of apoptosis related protein p-STAT3 (flow cytometry); assay type: cell-based, human; settings: MDX-124 20 μM, bortezomib 20 nM or both, 4 h; multiple myeloma cell lines
Method: as §1

[2] = system: triple-negative breast cancer cell line HCC1806; assay: MTT cell proliferation assay, HCC1806
[3] = system: PANC-1 pancreatic cancer cell line; assay: MTT cell proliferation assay, PANC-1; assay type: cell-based, human; settings: for IC50: Homo sapiens, PANC-1, MTT
Method: (§2) The cell lines were obtained from Public Health England Culture Collections. MIA-PaCa-2 is a human pancreatic carcinoma cell line; PANC-1 is a human pancreatic epithelioid carcinoma cell line.
(§3) Assays were performed in triplicate.
(§4) Cells were then cultured for 24 hr prior to assay, then cell proliferation was measured.
(§5) With both cell lines 5FU was used at its IC50. The IC50 concentration represents the concentration at which a substance exerts half of its maximal inhibitory effect. The IC50 for each cell line was calculated by treating with a series of 10-fold dilutions of 5FU ranging from 1 nM to 10 mM. The MTT assay was used to calculate cancer cell viability after 72 hr incubation with 5FU at each concentration.

[4] = system: MIA PaCa-2 pancreatic cancer cell line; assay: MTT cell proliferation assay, MIA PaCa-2; assay type: cell-based, human
Method: as §2, §3, §4, §5

LL/2 lung cancer cells = assay: LL/2 murine model of lung cancer; assay type: in vivo, C57BL/6 mice; settings: LL/2, MDX-124 10 mg/kg weekly, anti-PD-1 10 mg/kg twice weekly; two-way repeated measures ANOVA/mixed-effects model
Method: Drugs were administered as described above. Tumour volume was measured at days 2, 5, 8, 12 and 15, at which point the vehicle and monotherapy groups were terminated. The combination therapy group was measured again at day 19 and then terminated.
Results were analysed using a two-way repeated measures ANOVA/mixed-effects model. […] No body weight loss was detected in this study.

[5] = system: EMT6 triple-negative breast cancer cells; assay: EMT6 mouse model of breast cancer; assay type: in vivo, BALB/c mice
Method: Nine-week-old female BALB/c mice were inoculated subcutaneously with 5×10^5 EMT6 triple-negative breast cancer cells. […] Tumour volume was measured twice weekly for 3 weeks. The anti-PD-1 antibody used is the mouse antibody RMP-1-14 (Yamazaki et al., Journal of Immunology 175(3): 1586-1592, 2005); PBS was administered by intraperitoneal injection; antibodies were administered by intravenous injection.

In the case of `CC(C)C[C@H](NC(=O)[C@H](Cc1ccccc1)NC(=O)c1cnccn1)B(O)O` [bortezomib, reference compound], the “intracellular IL-6 expression (mean fluorescence intensity vs untreated control cells)” value (interleukin-6 (IL-6)) is reported as “modestly reduced”, the “expression of p-BCL2 (mean fluorescence intensity vs untreated control cells)” value (p-BCL2 (pS70)) is reported as “reduced the expression” and the “apoptosis (percentage above untreated control cell levels)” value [1] is reported as “significantly induced apoptosis”. For the same molecule, the “expression of p-STAT3 (mean fluorescence intensity vs untreated control cells)” value (p-STAT3 (Tyr705)) was “reduced the expression”.

With `N.N.[Cl][Pt][Cl]` [cisplatin, reference compound] the IC50 ([2]; read-out: IC50 of cisplatin (concentration at which 50% of cells were not viable), HCC1806, MTT, repeated four times) was 0.65 µM.

`Nc1ccn([C@@H]2O[C@H](CO)[C@@H](O)C2(F)F)c(=O)n1` [gemcitabine, reference compound] showed an IC50 ([3]; repeated three times, read-out: IC50 of gemcitabine (concentration at which 50% of cells were not viable)) of 20 µM.

`CC(=O)O[C@H]1C(=O)[C@@]2(C)[C@H]([C@H](OC(=O)c3ccccc3)[C@]3(O)C[C@H](OC(=O)[C@H](O)[C@@H](NC(=O)c4ccccc4)c4ccccc4)C(C)=C1C3(C)C)[C@]1(OC(C)=O)CO[C@@H]1C[C@@H]2O` [paclitaxel, reference compound] gave an IC20 ([2]; Homo sapiens, HCC1806, read-out: IC20 of paclitaxel (concentration at which 20% of cells were not viable)) of 0.0004 µM.

`O=c1[nH]cc(F)c(=O)[nH]1` [5FU, 5-fluorouracil, reference compound] showed an IC50 ([3]; 72 hr incubation, repeated 8 times, read-out: IC50 of 5FU (concentration at which 50% of cells were not viable)) of 1000 µM and an IC50 ([4]; Homo sapiens, MIA PaCa-2, MTT, 72 hr incubation, repeated 8 times, read-out: IC50 of 5FU (concentration at which 50% of cells were not viable)) of 100 µM.

“MDX-124: humanised IgG1 antibody against ANXA1 with a light chain of SEQ ID NO: 13 and a heavy chain of SEQ ID NO: 14” was tested, and the “anti-proliferative effect, single agent” value ([2]; HCC1806, MDX-124 alone 2.5-10 μM, vs IgG isotype control) was “significantly reduces cancer cell proliferation; also recorded: anti-proliferative effect”, the “intracellular IL-6 expression (mean fluorescence intensity vs untreated control cells)” value (interleukin-6 (IL-6)) was “modestly reduced” and the “tumour growth compared to vehicle (and monotherapies)” value (LL/2 lung cancer cells) was “No significant differences”. For the same molecule, the “anti-proliferative effect, single agent” value ([3]; PANC-1, MDX-124 alone 2.5-10 μM, 72 hours, vs IgG isotype control) was “significantly reduces cancer cell proliferation; also recorded: relatively potent anti-proliferative effect”, the “expression of p-BCL2 (mean fluorescence intensity vs untreated control cells)” value (p-BCL2 (pS70)) was “reduced the expression” and the “anti-proliferative effect, single agent” value ([4]; MIA PaCa-2, MDX-124 alone 2.5-10 μM, 72 hours, vs IgG isotype control) was “significantly reduces cancer cell proliferation; also recorded: relatively potent anti-proliferative effect”. The “apoptosis (percentage above untreated control cell levels)” value [1] was “had an impact on apoptosis” and the “expression of p-STAT3 (mean fluorescence intensity vs untreated control cells)” value (p-STAT3 (Tyr705)) was “reduced the expression”.

B1: MDX-001: murine anti-ANXA1 antibody, parent of MDX-124; light and heavy chains of SEQ ID NOs: 30 and 31 (antibody, listed as Mus musculus)
heavy: QVQLQQSGPELVRPGTSVKMSCKASGYTFTNYWIGWAKQRPGHGLEWIGDIYPGGDYTNYNEKFKGKATLTADKSSSTAYMQFSSLTSEDSAIYYCARWGLGYYFDYWGQGITLTVSSAKTTPPSVYPLAPGCGDTTGSSVTLGCLVKGYFPESVTVTWNSGSLSSSVHTFPALLQSGLYTMSSSVTVPSSTWPSQTVTCSVAHPASSTTVDKKLEPSGPISTINPCPPCKECHKCPAPNLEGGPSVFIFPPNIKDVLMISLTPKVTCVVVDVSEDDPDVQISWFVNNVEVHTAQTQTHREDYNSTIRVVSTLPIQHQDWMSGKEFKCKVNNKDLPSPIERTISKIKGLVRAPQVYILPPPAEQLSRKDVSLTCLVVGFNPGDISVEWTSNGHTEENYKDTAPVLDSDGSYFIYSKLNMKTSKWEKTDSFSCNVRHEGLKNYYLKKTISRSPGK
light: DAVMTQTPLSLPVSLGDQVSISCRSSQSLENSNGKTYLNWYLQKPGQSPQLLIYGVSNRFSGVLDRFSGSGSGTDFTLKISRVEAEDLGVYFCLQVTHVPYTFGGGTKLEIKRADAAPTVSIFPPSSEQLTSGGASVVCFLNNFYPKDINVKWKIDGSERQNGVLNSWTDQDSKDSTYSMSSTLTLTKDEYERHNSYTCEATHKTSTSPIVKSFNRNEC
In the case of B1, the “tumour growth compared to vehicle (and monotherapies)” value (LL/2 lung cancer cells) is reported as “neither MDX-001 nor the anti-PD-1 antibodies displayed efficacy”, the “tumour growth compared to the vehicle control” value ([5]; EMT6, MDX-001 10 mg/kg weekly, anti-PD-1 10 mg/kg twice weekly, i.v., 3 weeks) is reported as “did not significantly affect tumour growth” and the adverse effects ([5]; EMT6 model) is reported as “no adverse effects”.
